Reference: ChEMBL document CHEMBL3885861, “Open TG-GATES”

Organism: Rattus norvegicus
Assay: Open TG-GATES - Regimen: Daily Repeat
Type: toxicity, organism-based, Sprague-Dawley
Parameters: regimen Daily Repeat, gender Male, age 6 weeks
Details: in vivo, po, 100 mg/kg, route gavage, dose level High; for APTT / Bas / Eos / Fbg / Hb / Ht / Lym / MCH / MCHC / MCV / Mono / Neu / PT / Plat / RBC / Ret / WBC: tissue Blood
[1] = 72 h, tissue Kidney, time 3 day
[2] = 72 h, tissue Plasma, time 3 day

With `CSc1ccc2c(c1)N(CCC1CCCCN1C)c1ccccc1S2` (configuration not stated) [THIORIDAZINE] the TERMINAL_BW (72 h, time 3 day) was 219.1 g, the APTT (72 h, time 3 day) was 15.9 s and the Bas (72 h, time 3 day) was 0%. For the same molecule, the Eos (72 h, time 3 day) was 1%, the Fbg (72 h, time 3 day) was 196.2 mg/dL and the Hb (72 h, time 3 day) was 13.9 g/dL. For the same molecule, the Ht (72 h, time 3 day) was 41.9%, the Lym (72 h, time 3 day) was 81.4% and the MCH (72 h, time 3 day) was 21.4 pg. For the same molecule, the MCHC (72 h, time 3 day) was 33.2%, the MCV (72 h, time 3 day) was 64.4 fL and the Mono (72 h, time 3 day) was 5.4%. It also gave a Neu (72 h, time 3 day) of 12.2%, a PT (72 h, time 3 day) of 11.9 s and a Plat (72 h, time 3 day) of 117.8 x10_4/uL. It also gave an RBC (72 h, time 3 day) of 651.2 x10_4/ul, a Ret (72 h, time 3 day) of 6.1% and a WBC (72 h, time 3 day) of 136.4 x10_2/uL. For the same molecule, the KIDNEY_L [1] was 1 g, the KIDNEY_R [1] was 1 g and the KIDNEY_TOTAL [1] was 2 g. For the same molecule, the LIVER (72 h, tissue Liver, time 3 day) was 12.2 g, the ALP [2] was 887.2 IU/L and the ALT [2] was 40 IU/L. The AST [2] was 63.2 IU/L, the BUN [2] was 19.4 mg/dL and the CRE [2] was 0.5 mg/dL. The Ca [2] was 10.9 mg/dL, the DBIL [2] was 0.062 mg/dL and the GLC [2] was 187.6 mg/dL. It also gave an IP [2] of 9.4 mg/dL, a K [2] of 4.5 meq/L and an LDH [2] of 158.8 IU/L. For the same molecule, the Na [2] was 139.8 meq/L, the PL [2] was 164 mg/dL and the RALB [2] was 4 g/dL. For the same molecule, the TBIL [2] was 0.2 mg/dL, the TC [2] was 84 mg/dL and the TG [2] was 92.4 mg/dL. For the same molecule, the TP [2] was 5.9 g/dL, the gamma-GTP [2] was 1.6 IU/L and the TERMINAL_BW ([…], time 7 day) was 252.6 g. For the same molecule, the TERMINAL_BW ([…], time 14 day) was 299.8 g, the TERMINAL_BW ([…], time 28 day) was 349.4 g and the APTT ([…], time 7 day) was 16.5 s. It also gave a Bas ([…], time 7 day) of 0%, an Eos ([…], time 7 day) of 0.2% and a Fbg ([…], time 7 day) of 213 mg/dL. It also gave a Hb ([…], time 7 day) of 14.3 g/dL, a Ht ([…], time 7 day) of 43.2% and a Lym ([…], time 7 day) of 80%. The MCH ([…], time 7 day) was 21.3 pg, the MCHC ([…], time 7 day) was 33.1% and the MCV ([…], time 7 day) was 64.2 fL. The Mono ([…], time 7 day) was 7.6%, the Neu ([…], time 7 day) was 12% and the PT ([…], time 7 day) was 12.3 s. For the same molecule, the Plat ([…], time 7 day) was 98.4 x10_4/uL, the RBC ([…], time 7 day) was 672 x10_4/ul and the Ret ([…], time 7 day) was 4.6%. It also gave a WBC ([…], time 7 day) of 144.8 x10_2/uL, an APTT ([…], time 14 day) of 17.8 s and a Bas ([…], time 14 day) of 0%. It also gave an Eos ([…], time 14 day) of 0.8%, a Fbg ([…], time 14 day) of 242.8 mg/dL and a Hb ([…], time 14 day) of 15.2 g/dL. The Ht ([…], time 14 day) was 45.7%, the Lym ([…], time 14 day) was 75% and the MCH ([…], time 14 day) was 20.8 pg. It also gave an MCHC ([…], time 14 day) of 33.3%, an MCV ([…], time 14 day) of 62.5 fL and a Mono ([…], time 14 day) of 6%. For the same molecule, the Neu ([…], time 14 day) was 18.2%, the PT ([…], time 14 day) was 11.9 s and the Plat ([…], time 14 day) was 112.1 x10_4/uL. The RBC ([…], time 14 day) was 733.4 x10_4/ul, the Ret ([…], time 14 day) was 4.4% and the WBC ([…], time 14 day) was 145.8 x10_2/uL. It also gave an APTT ([…], time 28 day) of 17.7 s, a Bas ([…], time 28 day) of 0% and an Eos ([…], time 28 day) of 0.6%. For the same molecule, the Fbg ([…], time 28 day) was 225.4 mg/dL.
